Assay results taken from US9006262B2 (priority 2011, dated 2015).

Tested on: C57BL/6 mouse line transplanted with B16-F10 melanoma cells
Settings: in vivo

| SMILES | life-prolonging effect (survival rate / lifetime) | suppressive effect on body weight loss (percent change in body weight) |
| --- | --- | --- |
| CN(C(=O)/C=C/c1ccoc1)[C@@H]1CC[C@@]2(O)[C@H]3Cc4ccc(O)c5c4[C@@]2(CCN3CC2CC2)[C@H]1O5.Cl [Compound 1, (−)-17-(cyclopropylmethyl)-3,14β-dihydroxy-4,5α-epoxy-6β-[N-methyl-trans-3-(3-furyl)acrylamido]morphinan hydrochloride] | statistically significant life-prolonging effect | statistically significant suppressive effect on body weight loss |
| CN1CC[C@]23c4c5ccc(O)c4O[C@H]2[C@@H](O)C=C[C@H]3[C@H]1C5 [morphine, Morphine] | tendency to reduce the lifetime | tendency of further body weight loss |
